# In patent publication US7498408B2, “Ryanodine receptor polypeptides” (E. I. du Pont de Nemours and Company, priority 2002, dated 2009):
# Experiments:
# [1] = system: native cockroach ryanodine receptors (in embryonic neuronal cells); experiment: Calcium release assay, calcium imaging in primary embryonic cockroach neuronal cells; assay type: cell-based, Periplaneta americana; details: for Calcium Release (P. americana): known ryanodine receptor agents, native receptors in embryonic neuronal cells, result in words
# Source text: Embryonic neuronal cultures of the American cockroach Periplaneta americana were established, with minor modifications, following the method of Beadle and Lees (1988) (in Cell Culture Approaches to Invertebrate Neuroscience, Academic Press, New York, pp 123-127). Briefly, 26-27-day old oothecae were collected, surface-sterilized and cut open along a line one-third of the distance below the dorsal midline. The heads were removed and placed in Schneider's Drosophila medium (Invitrogen Life Technologies™, Carlsbad, Calif.). Using fine forceps 40 brains were individually removed and placed in a small glass vial containing 700 μl of ‘5+4’ medium (‘5+4’ medium contained 5 parts Schneider's Drosophila medium plus 4 parts roach Basal Medium Eagle, with Earle's salts (BME, Sigma™, St. Louis, Mo.). Roach BME (with Earle's salts) contained 5 parts Hepes (1 M), 1 part penicillin/streptomycin and 44 parts BME (with Earle's salts). ‘5+4’ medium was made fresh and sterile filtered (0.2 μm filter) just prior to use). The brains were dissociated by sequential trituration as follows: 1) brains were passed through a standard Pasteur pipette 10 times; 2) the resulting tissue suspension was passed an additional 5 times through a Pasteur pipet with tip flamed to about half of its original diameter; 3) a final 5 passes were performed using a Pasteur pipet with tip flamed to slightly less than half of its original diameter. A repeat pipettor was used to dispense a 5 μl volume of the resulting suspension into the center of each well of a 96-well, glass-bottom plate previously coated with poly-L-lysine (0.2 mg/ml solution). Cells attached to the bottom of the wells during a 50 min incubation at 27-29° C. 150 ul of a 1:1 mixture of Leibovitz's L-15 medium and Yunker's modified Grace's medium was added, and plates were maintained in a humid incubator at 27-29° C. until use. After cells were allowed to attach wells were filled with a 1:1 mixture of Leibovitz's L-15 medium and Yunker's modified Grace's medium (Leibovitz's L-15 and Grace's medium were obtained from Invitrogen Life Technologies™, Carlsbad, Calif. and Yunker's modified Grace's medium was made with Grace's medium modified by addition of 5 mg L-methionine, 10 mg L-alanine, 182 mg MgCl26H20, 1 g Albumin Fraction V, 7 ml Fetal bovine serum, 10 ml Chick embryo extract, 2 ml Penicillin/Streptomycin, and 2 mg 20-hydroxyecdysone (prepared in ethanol prior to addition) to a final volume of 100 ml and sterile filtered (0.2 μm filter)). Cells were maintained in a high humidity incubator at 29° C. until testing.
# Cells were rinsed in standard physiological saline having the following composition (mM): NaCl 190; CaCl2 9; KCl 3.1; probenicid 1; Tris buffer 10; pH 7.2. Cells were then bathed in standard physiological saline containing the calcium sensitive fluoroprobe Fluo4 AM (2 μM) and Pluronic F127 (0.002%) for 45 min. Cells were then rinsed in standard physiological saline for at least 15 min prior to testing. Within the hour prior to testing, standard physiological saline was replaced with standard physiological saline containing the organic cation channel blocker pimozide (10 μM), to inhibit influx of external calcium through voltage-gated calcium channels. The 96-well plate was placed on a PriorTm motorized stage mounted onto a Nikon Diaphot microscope and imaged using a 20× Fluor objective (NA 0.75). Individual wells from the 96-well plate were sequentially excited with light at 495 nm, and the emitted fluorescence at 530 nm was detected using a Hamamatsu ORCA ER digital camera with 2 pixel binning (image size 672×512 pixels).
# Acquisition control, image processing and image analysis were conducted using Universal Imaging Corporation's MetaMorph™ imaging software (Universal Imaging, West Chester, Pa.). A series of 3 “control” images were acquired for each well. Experimental compounds were added followed by acquisition of 4 “experimental” images for each well. […]
# [2] = system: control Sf9 cells without DNA / wild type Sf9; experiment: Calcium response in control or wild-type Sf9 cells lacking recombinant receptor; assay type: cell-based, Spodoptera frugiperda; details: for calcium responses in control cells without DNA (FIG. 3): Compound 16 10 and 100 nM
# Source text: (§1) Several drops of a suspension of recombinant Spodoptera frugiperda cell line, Sf9, transiently expressing insect ryanodine receptors were placed on a poly-L-lysine-coated coverslip and allowed to attach. Cells were then rinsed in physiological saline having the following composition (mM): NaCl 130; KCl 5.4; MgCl2 1.2; CaCl2 1.0; NaHCO3 4.2; NaH2P04 7.3; Glucose 10; Sucrose 63; MES 20; pH 6.3. Cells were then bathed in physiological saline containing the calcium sensitive fluoroprobe, Fura-2 AM (2 μM), and Pluronic F127 (0.002%) for 30 min. Cells were rinsed in standard physiololgical saline for at least 15 min prior to testing. Testing was conducted in standard physiological saline, as the cell lines are devoid of functional voltage-gated calcium channels.
# (§2) Imaging studies were conducted using a Nikon Diaphot microscope with a 40× oil immersion objective (NA 1.3) Image acquisition and processing was performed using the MetaFluor™ imaging system from Universal Imaging Corporation (West Chester, Pa.) Calcium calibration was carried out using the Grynkiewicz equation with a dissociation constant (Kd) of 145 nM for Fura-2 (Grynkiewicz et al., 1985). Cell-attached coverslips were placed in a sealed chamber with physiological saline continuously perfused across the cells using a peristaltic pump. Test compounds solubilized in physiological saline were applied by switching the perfusate source.
# (§3) For studies involving the stable recombinant Spodoptera frugiperda cell line, Sf9, (other cell lines could also be used such as Sf21, S2, etc) expressing an insect ryanodine receptor from Drosophila melanogaster, or Heliothis virescens (alternatively receptors from other species such as Myzus persicae, Peregrinus maidis, Aphis gossypii, etc) were grown in T75 (or other appropriate sized) flasks in supplemented Grace's insect medium. Cells were maintained in an incubator at 22° C. until testing. Cells were suspension-loaded with the calcium sensitive fluoroprobe, Fura-2 AM (1-2 μM) and Pluronic F127 (0.002%) in culture medium for 30 minutes under agitation. Cells were then centrifuged and the pellet resuspended in physiological saline having the following composition (mM): NaCl 130; KCl 5.4; MgCl2 1.2; CaCl2 1.0; NaHCO3 4.2; NaH2P04 7.3; Glucose 10; Sucrose 63; MES 20; pH 6.3 at approximately 150,000-200,000 cells per well (96-well plate). After a 30 minute equilibration period the cell plate was tested using a Molecular Devices' FlexStation™ system with dual wavelength excitation (340 and 380 nm) and fluorescence emission measured at 510 nm. Test and control samples were added using integrated fluidics and the intracellular calcium monitored over a 2 minute period.
# [3] = system: recombinant Heliothis virescens ryanodine receptor (expressed in Sf9 cells); experiment: Calcium release assay in Sf9 cells expressing recombinant Heliothis virescens ryanodine receptor; assay type: cell-based; details: caffeine 10 mM; for calcium responses, Sf9 stably expressing H. virescens ryanodine receptor (FIG. 5): Compound 14 1 μM, Fura-2 AM imaging
# Source text: as §1, §2, §3
# [4] = molecular target: T1, recombinant Drosophila melanogaster ryanodine receptor (expressed in Sf9 cells) (Drosophila melanogaster, UniProt Q24498); assay type: cell-based; details: for Calcium Release (D. melanogaster): known ryanodine receptor agents, transiently or stably expressed in Sf9 cells, result in words
# T1 construct: His tag + attB1 + Lox footprint (N-terminal vector extension; present only if the Cre-Lox vector was the one used) (N); expressed in transfected cells
# Source text: as §1
# Cell-attached coverslips were placed in a sealed chamber with physiological saline continuously perfused across the cells using a peristaltic pump. Test compounds solubilized in physiological saline were applied by switching the perfusate source.
# as §3
# [5] = molecular target: cockroach ryanodine receptor (roach femoral muscle membranes) (Periplaneta americana, UniProt Z9HFG3YSF4); experiment: Radioligand displacement ([3H]-GN analog Cpd 1) from roach femoral muscle membranes; details: for IC50: read-out: Displacement IC50 (nM) P. americana, displacement of [3H]-Cpd 1, roach muscle membranes, 60 min at 32° C.; for Radioligand Displacement (P. americana): known ryanodine receptor agents, result in words
# Chain of cockroach ryanodine receptor (roach femoral muscle membranes) (Z9HFG3YSF4 1-5141): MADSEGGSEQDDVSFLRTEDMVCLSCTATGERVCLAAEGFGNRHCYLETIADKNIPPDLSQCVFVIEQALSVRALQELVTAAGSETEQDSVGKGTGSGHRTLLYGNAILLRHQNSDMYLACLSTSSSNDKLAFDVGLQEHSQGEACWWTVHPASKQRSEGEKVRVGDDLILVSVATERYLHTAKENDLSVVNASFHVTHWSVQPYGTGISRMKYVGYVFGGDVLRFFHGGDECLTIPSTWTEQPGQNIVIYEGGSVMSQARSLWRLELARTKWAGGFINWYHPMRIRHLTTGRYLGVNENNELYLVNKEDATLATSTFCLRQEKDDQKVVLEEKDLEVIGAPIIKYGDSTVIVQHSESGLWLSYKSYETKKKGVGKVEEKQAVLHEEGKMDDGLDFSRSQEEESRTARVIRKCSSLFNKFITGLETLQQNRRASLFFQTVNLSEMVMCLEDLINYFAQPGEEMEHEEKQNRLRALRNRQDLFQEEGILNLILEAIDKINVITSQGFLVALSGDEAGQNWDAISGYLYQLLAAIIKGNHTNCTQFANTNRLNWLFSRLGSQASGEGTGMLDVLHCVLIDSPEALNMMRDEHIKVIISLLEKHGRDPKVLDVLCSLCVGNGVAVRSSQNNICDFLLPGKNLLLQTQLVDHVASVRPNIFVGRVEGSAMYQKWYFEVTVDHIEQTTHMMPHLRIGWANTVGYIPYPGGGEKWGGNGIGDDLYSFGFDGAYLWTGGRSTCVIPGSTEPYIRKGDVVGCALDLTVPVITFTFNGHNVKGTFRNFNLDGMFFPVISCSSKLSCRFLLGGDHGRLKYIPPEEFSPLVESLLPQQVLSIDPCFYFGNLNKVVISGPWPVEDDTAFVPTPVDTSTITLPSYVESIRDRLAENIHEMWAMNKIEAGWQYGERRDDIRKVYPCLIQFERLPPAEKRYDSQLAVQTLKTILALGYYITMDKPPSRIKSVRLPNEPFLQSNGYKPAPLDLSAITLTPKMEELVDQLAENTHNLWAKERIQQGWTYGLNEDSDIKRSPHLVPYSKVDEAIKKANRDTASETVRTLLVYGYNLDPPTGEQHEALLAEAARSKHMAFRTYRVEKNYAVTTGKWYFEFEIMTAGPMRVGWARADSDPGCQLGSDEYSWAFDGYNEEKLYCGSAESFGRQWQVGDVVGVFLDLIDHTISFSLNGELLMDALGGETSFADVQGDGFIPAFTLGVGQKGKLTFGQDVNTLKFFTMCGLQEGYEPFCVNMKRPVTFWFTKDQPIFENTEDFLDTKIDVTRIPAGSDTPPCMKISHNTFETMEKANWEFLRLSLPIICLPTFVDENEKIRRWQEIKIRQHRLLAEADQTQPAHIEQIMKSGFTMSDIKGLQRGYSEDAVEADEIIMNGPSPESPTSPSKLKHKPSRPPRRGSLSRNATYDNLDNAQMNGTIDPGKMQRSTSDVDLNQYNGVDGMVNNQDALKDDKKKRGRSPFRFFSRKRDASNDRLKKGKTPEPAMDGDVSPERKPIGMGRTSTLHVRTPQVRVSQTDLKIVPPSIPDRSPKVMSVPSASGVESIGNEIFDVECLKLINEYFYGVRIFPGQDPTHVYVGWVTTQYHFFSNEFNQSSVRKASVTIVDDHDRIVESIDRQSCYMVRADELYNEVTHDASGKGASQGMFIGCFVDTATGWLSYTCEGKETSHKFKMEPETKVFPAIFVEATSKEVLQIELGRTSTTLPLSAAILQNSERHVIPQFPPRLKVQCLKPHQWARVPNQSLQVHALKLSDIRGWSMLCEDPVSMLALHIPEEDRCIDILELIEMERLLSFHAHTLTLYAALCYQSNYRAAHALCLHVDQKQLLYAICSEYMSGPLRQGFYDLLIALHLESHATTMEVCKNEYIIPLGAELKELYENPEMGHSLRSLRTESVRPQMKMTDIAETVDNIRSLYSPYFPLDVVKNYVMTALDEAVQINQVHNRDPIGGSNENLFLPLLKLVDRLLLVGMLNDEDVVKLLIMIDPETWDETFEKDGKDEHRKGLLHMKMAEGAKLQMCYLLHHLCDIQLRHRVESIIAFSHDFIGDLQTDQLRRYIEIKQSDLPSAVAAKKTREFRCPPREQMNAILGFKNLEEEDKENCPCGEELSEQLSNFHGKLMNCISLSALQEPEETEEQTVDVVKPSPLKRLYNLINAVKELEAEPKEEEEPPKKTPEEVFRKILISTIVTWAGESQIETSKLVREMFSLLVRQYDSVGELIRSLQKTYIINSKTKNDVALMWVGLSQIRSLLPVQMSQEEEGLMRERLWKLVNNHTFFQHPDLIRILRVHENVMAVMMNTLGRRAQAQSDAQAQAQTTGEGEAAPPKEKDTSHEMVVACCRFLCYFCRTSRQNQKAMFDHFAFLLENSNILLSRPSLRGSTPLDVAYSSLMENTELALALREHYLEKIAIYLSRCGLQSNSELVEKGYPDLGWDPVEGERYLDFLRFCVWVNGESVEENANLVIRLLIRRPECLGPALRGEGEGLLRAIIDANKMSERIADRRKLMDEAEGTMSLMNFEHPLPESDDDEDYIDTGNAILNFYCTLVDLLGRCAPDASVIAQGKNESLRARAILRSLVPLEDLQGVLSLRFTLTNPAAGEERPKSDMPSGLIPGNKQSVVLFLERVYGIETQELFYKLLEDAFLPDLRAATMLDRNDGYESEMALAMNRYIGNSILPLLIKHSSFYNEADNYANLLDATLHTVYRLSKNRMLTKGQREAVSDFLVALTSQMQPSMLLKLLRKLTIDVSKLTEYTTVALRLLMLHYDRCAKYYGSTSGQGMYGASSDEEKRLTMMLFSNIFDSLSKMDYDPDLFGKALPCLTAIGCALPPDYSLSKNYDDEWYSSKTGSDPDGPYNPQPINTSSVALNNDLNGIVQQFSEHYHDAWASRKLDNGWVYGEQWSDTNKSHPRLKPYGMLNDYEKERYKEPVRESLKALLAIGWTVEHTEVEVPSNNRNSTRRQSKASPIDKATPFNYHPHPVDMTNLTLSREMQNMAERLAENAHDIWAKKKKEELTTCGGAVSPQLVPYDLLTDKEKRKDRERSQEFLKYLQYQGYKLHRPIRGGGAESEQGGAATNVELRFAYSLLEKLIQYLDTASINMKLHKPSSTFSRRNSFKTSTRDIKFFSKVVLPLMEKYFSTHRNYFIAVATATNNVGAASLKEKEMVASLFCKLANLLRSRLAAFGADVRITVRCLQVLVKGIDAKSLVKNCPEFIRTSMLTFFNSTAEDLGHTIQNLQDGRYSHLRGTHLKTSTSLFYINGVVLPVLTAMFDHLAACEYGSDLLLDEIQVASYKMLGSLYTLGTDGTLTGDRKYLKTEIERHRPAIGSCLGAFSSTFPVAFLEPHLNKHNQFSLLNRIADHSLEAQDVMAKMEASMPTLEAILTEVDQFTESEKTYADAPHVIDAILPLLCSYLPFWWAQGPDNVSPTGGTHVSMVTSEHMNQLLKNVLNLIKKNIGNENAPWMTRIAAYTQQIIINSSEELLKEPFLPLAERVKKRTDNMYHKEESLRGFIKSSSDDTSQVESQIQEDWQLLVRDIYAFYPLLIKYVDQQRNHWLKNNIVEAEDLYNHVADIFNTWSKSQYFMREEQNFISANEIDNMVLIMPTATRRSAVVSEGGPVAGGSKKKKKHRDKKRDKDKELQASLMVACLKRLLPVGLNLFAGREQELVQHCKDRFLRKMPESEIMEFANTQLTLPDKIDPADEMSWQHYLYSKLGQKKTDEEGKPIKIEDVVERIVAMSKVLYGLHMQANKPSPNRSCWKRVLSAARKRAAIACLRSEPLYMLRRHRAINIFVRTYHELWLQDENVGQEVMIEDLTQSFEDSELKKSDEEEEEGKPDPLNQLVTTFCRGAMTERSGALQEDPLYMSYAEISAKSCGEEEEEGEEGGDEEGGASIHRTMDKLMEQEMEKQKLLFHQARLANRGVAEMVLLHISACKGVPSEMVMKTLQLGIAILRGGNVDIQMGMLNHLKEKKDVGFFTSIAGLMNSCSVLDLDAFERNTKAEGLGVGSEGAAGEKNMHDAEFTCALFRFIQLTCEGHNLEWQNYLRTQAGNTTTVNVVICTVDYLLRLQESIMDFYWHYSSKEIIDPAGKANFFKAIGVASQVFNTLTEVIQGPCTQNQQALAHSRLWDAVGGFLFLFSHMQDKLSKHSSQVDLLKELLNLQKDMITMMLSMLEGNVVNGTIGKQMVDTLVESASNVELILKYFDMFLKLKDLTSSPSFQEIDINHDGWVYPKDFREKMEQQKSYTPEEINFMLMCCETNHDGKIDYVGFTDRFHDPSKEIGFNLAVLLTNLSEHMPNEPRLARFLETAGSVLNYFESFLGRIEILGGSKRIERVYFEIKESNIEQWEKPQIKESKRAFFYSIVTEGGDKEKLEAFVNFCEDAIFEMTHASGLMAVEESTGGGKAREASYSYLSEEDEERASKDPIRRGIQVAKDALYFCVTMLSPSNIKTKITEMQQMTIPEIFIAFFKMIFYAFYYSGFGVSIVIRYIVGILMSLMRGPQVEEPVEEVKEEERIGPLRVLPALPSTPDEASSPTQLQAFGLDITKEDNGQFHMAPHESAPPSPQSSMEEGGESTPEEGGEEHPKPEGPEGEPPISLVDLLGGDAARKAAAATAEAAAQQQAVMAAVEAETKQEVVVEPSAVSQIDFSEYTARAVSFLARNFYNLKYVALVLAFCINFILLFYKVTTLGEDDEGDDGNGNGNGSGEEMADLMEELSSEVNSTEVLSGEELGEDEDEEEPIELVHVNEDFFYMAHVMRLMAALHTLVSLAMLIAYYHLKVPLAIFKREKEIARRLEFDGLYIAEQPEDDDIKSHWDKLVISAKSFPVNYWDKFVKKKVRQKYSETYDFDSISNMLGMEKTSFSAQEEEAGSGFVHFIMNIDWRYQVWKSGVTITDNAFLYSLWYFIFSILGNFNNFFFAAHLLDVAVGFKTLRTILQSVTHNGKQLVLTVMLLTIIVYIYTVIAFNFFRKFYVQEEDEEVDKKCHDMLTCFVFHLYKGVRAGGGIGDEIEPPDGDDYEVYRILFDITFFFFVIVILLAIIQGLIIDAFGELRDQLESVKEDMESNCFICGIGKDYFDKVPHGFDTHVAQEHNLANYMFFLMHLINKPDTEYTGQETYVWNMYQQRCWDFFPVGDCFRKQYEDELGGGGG
# Description: Mid and hind legs from 6-9 week old cockroaches were excised and immediately placed in liquid nitrogen. Excised legs could be stored at −80° C. for several months, if necessary, prior to further fractionation. Typically, membrane preparations started with approximately 55 g (wet weight) of excised legs. All subsequent steps were carried out at 4° C.
# The legs were homogenized on ice using a Polytron (Brinkmann Instruments, Westbury, N.Y.) for 2 min at Setting #3. In order to remove all fragments of cuticle, the homogenate was first passed through two layers of cheesecloth and then through one layer of glass wool overlaid on two layers of cheesecloth. On occasion, the cheesecloth clogged with particulates prior to passing all material through. In such cases, fresh cheesecloth (and glass wool) was used for the remainder of the suspension. […] The supernatant was collected and centrifuged for 30 min at 30,000×gmax. The resulting pellet was resuspended in buffer A (1.5 M KCl, 0.3 M sucrose, 0.5 mM CaCl2, 20 mM Tris-HCl, pH 8.0). The membrane suspension was homogenized by hand (about 25 strokes) using a glass-teflon homogenizer. […] Subsequently, the membrane suspension was adjusted to 4 μg protein/μg by addition of buffer A and then stored in 1 ml aliquots at −80° C.
# The assay was begun by addition of 25 μl of roach muscle membranes at 2 μg/μl (prepared by thawing and addition of an equal volume of buffer B), and incubation was carried out for 60 min at 32° C. Assays were carried out in triplicate.
# The compound was allowed to pre-incubate with the membranes for 10 min at 32° C. […] Assays were carried out in triplicate.
# Following incubation, assays were quenched with ice-cold buffer B and immediately filtered on pre-wefted Unifilter 96 GF/B filter microplates using a Unifilter 96 Harvester (PerkinElmer™, Boston, Mass.). Each assay well was then washed 10 times with buffer B, and collected on the same filter microplate. The filter microplates were then placed in a vacuum oven at 32° C. for 3 h, following which 50 μl of Microscint 0 (PerkinElmer™, Boston, Mass.) was added to each well. Plates were then heat sealed and counted using a Topcount microplate scintillation counter (PerkinElmer™, Boston, Mass.).
Compound,Calcium Release Threshold (nM) P. americana [1] [nM],IC50 [5] [nM],other results
"Oc1c(Br)cc2[nH]c3cnccc3c2c1Br [Bromoeudistomin D, reference compound]",–,–,Calcium Release (P. americana) [1]: Agonist
Cn1c(=O)c2c(ncn2C)n(C)c1=O [Caffeine],–,–,"caffeine dose response, wild-type Sf9 cells (FIG. 6) ([2]; Sf9-WT, FlexStation, Fura-2): insensitive; response of lipid only (-DNA) or non-transfected cells ([2]; caffeine 10 mM): do not exhibit significant response; calcium responses in control cells without DNA (FIG. 4) ([2]; caffeine 10 mM, Compound 5 3 μM): No significant calcium responses; calcium responses in control cells without DNA (FIG. 3) ([2]; caffeine 10 mM): No significant calcium responses; Calcium Release (P. americana) [1]: Agonist; cytosolic [Ca2+], Sf9 transiently expressing H. virescens ryanodine receptor (FIG. 4) ([3]; 72 hr post-transfection, Cpd 5 3 μM): increase in cytosolic [Ca^2+]; calcium responses, Sf9 stably expressing H. virescens ryanodine receptor (FIG. 5) [3]: calcium responses elicited"
"[3H]c1cc(C)c(NC(=O)c2cc(C(F)(F)F)nn2-c2ccccc2F)c(C(=O)NC(C)C)c1 [Cpd 1, 1-(2-Fluorophenyl)-N-[2-methyl-4-tritio-6-[[(1-methylethyl)amino]carbonyl]phenyl]-3-(trifluoromethyl)-1H-pyrazole-5-carboxamide]",<1000,< 300,Calcium Release Threshold (nM) D. melanogaster [4]: <300 nM
Cc1cccc(C(=O)NC(C)C)c1NC(=O)c1cc(C(F)(F)F)nn1-c1ccccc1Cl [Cpd 2],<300,< 300,Calcium Release Threshold (nM) D. melanogaster [4]: <300 nM
Cc1cc(Br)cc(C(=O)NCC(C)C)c1NC(=O)c1cc(C(F)(F)F)nn1-c1ccccc1Cl [Cpd 3],–,< 300,–
CNC(=O)c1cccc(C)c1NC(=O)c1cc(C(F)(F)F)nn1-c1ncccc1Cl [Cpd 6],<300,< 300,–
Cc1cccc(C(=O)NC(C)C)c1NC(=O)c1cc(Br)nn1-c1ncccc1Cl [Cpd 7],<300,< 300,–
Cc1cccc(C(=O)NC(C)C)c1NC(=O)c1cc(Cl)nn1-c1ncccc1Cl [Cpd 8],<300,< 300,–
Cc1cc(Br)cc(C(=O)NC(C)C)c1NC(=O)c1cc(C(F)(F)F)nn1-c1ncccc1Cl [Cpd 9],<300,< 300,–
Cc1cc(Cl)cc(C(=O)NC(C)C)c1NC(=O)c1cc(C(F)(F)F)nn1-c1ncccc1Cl [Cpd 10],<300,< 300,–
CNC(=O)c1cc(Cl)cc(C)c1NC(=O)c1cc(C(F)(F)F)nn1-c1ncccc1Cl [Cpd 11],<300,< 300,Calcium Release Threshold (nM) D. melanogaster [4]: <300 nM
Cc1cc(Br)cc(C(=O)NC(C)C)c1NC(=O)c1cc(Br)nn1-c1ncccc1Cl [Cpd 12],<300,< 300,–
Cc1cc(Cl)cc(C(=O)NC(C)C)c1NC(=O)c1cc(Br)nn1-c1ncccc1Cl [Cpd 13],–,< 300,–
CNC(=O)c1cc(Cl)cc(C)c1NC(=O)c1cc(Br)nn1-c1ncccc1Cl [Cpd 14],<300,< 300,"Calcium Release Threshold (nM) D. melanogaster [4]: <300 nM; calcium responses, Sf9 stably expressing H. virescens ryanodine receptor (FIG. 5) [3]: calcium responses elicited"
CNC(=O)c1cc(Br)cc(C)c1NC(=O)c1cc(C(F)(F)F)nn1-c1ncccc1Cl [Cpd 15],<300,< 300,–
Cc1cc(Cl)cc(C(=O)NC(C)C)c1NC(=O)c1cc(Cl)nn1-c1ncccc1Cl [Cpd 16],<300,< 300,"calcium responses in control cells without DNA (FIG. 3) ([2]; caffeine 10 mM): No significant calcium responses; Calcium Release Threshold (nM) D. melanogaster [4]: <300 nM; calcium responses, Sf9 transiently expressing D. melanogaster ryanodine receptor (FIG. 3) ([4]; 96 hr post-transfection, caffeine 10 mM, Compound 16 10 and 100 nM): calcium responses elicited"
CNC(=O)c1cc(Cl)cc(C)c1NC(=O)c1cc(Cl)nn1-c1ncccc1Cl [Cpd 17],<300,< 300,–
CCNC(=O)c1cc(Br)cc(Br)c1NC(=O)c1cc(C(F)(F)F)nn1-c1ncccc1Cl [Cpd 18],–,< 300,–
"COc1cccc2c1C(=O)c1c(O)c3c(c(O)c1C2=O)C[C@@](O)(C(=O)CO)C[C@@H]3O[C@H]1C[C@H](N)[C@H](O)[C@H](C)O1.Cl [Doxorubicin, reference compound]",–,–,Calcium Release (P. americana) [1]: Inactive
"N.N.N.N.N.N.N.N.N.N.N.N.N.N.[Cl-].[Cl-].[Cl-].[Cl-].[Cl-].[Cl-].[O-2].[O-2].[Ru+3].[Ru+3].[Ru+4] [Ruthenium Red, reference compound]",–,–,Calcium Release (P. americana) [1]: Inactive; Calcium Release (D. melanogaster) [4]: Antagonist; Radioligand Displacement (P. americana) [5]: Displacer
CC(C)[C@@]1(O)[C@@H](OC(=O)c2ccc[nH]2)[C@@]2(O)[C@@]3(C)C[C@]4(O)O[C@@]5([C@H](O)[C@@H](C)CC[C@]35O)[C@@]2(O)[C@@]14C [Ryanodine],–,–,Calcium Release (P. americana) [1]: Antagonist; Calcium Release (D. melanogaster) [4]: Antagonist; Radioligand Displacement (P. americana) [5]: Inactive
